Converted amounts (≈) assume the structure as drawn.
Key:
[1] = MTT cytotoxicity assay, HepG2; type: cell-based, human; settings: human, HepG2 cells (hepatocellular carcinoma), 48 h
Method: (§1) The assessment of cytotoxicity for the methanolic extract and isolated flavonoids was performed under controlled and sterile conditions within a Class II A2 Laminar flow biosafety cabinet. The carcinoma cell lines used in this study was obtained from Nawah Scientific Inc. (Cairo, Egypt). The cells were cultured in Dulbecco’s Modified Eagle’s Medium, enriched with 10% heat-inactivated fetal bovine serum, 100 U/ml penicillin, and 100 μg/ml streptomycin sulfate, maintained at […] in humidified incubators with 5% CO2. Upon reaching approximately 80% confluence, the cells were subcultured using a trypsin–EDTA solution. Harvesting occurred during the logarithmic growth phase. The methanolic extract and isolated flavonoids were dissolved in DMSO and stored at − 20 °C. For each experimental trial, the stock solutions were mixed with the culture medium to obtain the required final concentrations.
(§2) The effectiveness of the extract was compared to that of the reference drug, Doxorubicin. The percentage of cell viability was calculated by taking the ratio of the absorbance of the plant extract to that of the control, multiplied by 100. Furthermore, the IC50 value of the plant extract was determined using Sigma Plot software version 11 (Spw.exe) (https://sigmaplot.software.informer.com/11.0/).

[2] = system: hepatocellular carcinoma (HepG2); assay: MTT cytotoxicity assay, HepG2; type: cell-based, human; settings: Homo sapiens, HepG2, 48 h, read-out: IC50
Method: as §1, §2

[3] = MTT cytotoxicity assay, HTC-116; type: cell-based, human; settings: human, HTC-116 cells (human colorectal carcinoma), 48 h
Method: as §1, §2

[4] = system: human colorectal carcinoma cells (HTC-116); assay: MTT cytotoxicity assay, HTC-116; type: cell-based; settings: Homo sapiens, HTC-116, 48 h, read-out: IC50
Method: as §1, §2

[5] = MTT cytotoxicity assay, Caco-2; type: cell-based, human; settings: human, Caco-2 cells (human colonic epithelial cells), 48 h
Method: as §1, §2

[6] = system: human colonic epithelial cells (Caco-2); assay: MTT cytotoxicity assay, Caco-2; type: cell-based; settings: Homo sapiens, Caco-2, 48 h, read-out: IC50
Method: as §1, §2

Compound: COc1cccc2c1C(=O)c1c(O)c3c(c(O)c1C2=O)C[C@@](O)(C(=O)CO)C[C@@H]3O[C@H]1C[C@H](N)[C@H](O)[C@H](C)O1 [Doxorubicin, reference compound]
- cytotoxicity at 48 h, 6.25 µg/ml ([1]; HepG2, 6.25 ug/ml): 31.8%
- viability at 48 h, 6.25 µg/ml ([1]; HepG2, 6.25 ug/ml, read-out: % Cell viability): 68.2%
- cytotoxicity at 48 h, 12.5 µg/ml ([1]; HepG2, 12.5 ug/ml): 37.7%
- viability at 48 h, 12.5 µg/ml ([1]; HepG2, 12.5 ug/ml, read-out: % Cell viability): 62.3%
- cytotoxicity at 48 h, 25 µg/ml ([1]; HepG2, 25 ug/ml): 60.1%
- viability at 48 h, 25 µg/ml ([1]; HepG2, 25 ug/ml, read-out: % Cell viability): 39.9%
- cytotoxicity at 48 h, 50 µg/ml ([1]; HepG2, 50 ug/ml): 76%
- viability at 48 h, 50 µg/ml ([1]; HepG2, 50 ug/ml, read-out: % Cell viability): 24%
- cytotoxicity at 48 h, 100 µg/ml ([1]; HepG2, 100 ug/ml): 92%
- viability at 48 h, 100 µg/ml ([1]; HepG2, 100 ug/ml, read-out: % Cell viability): 7.95%
- IC50 [2]: 23.6 µg/mL (≈ 43.3 µM)
- cytotoxicity at 48 h, 6.25 µg/ml ([3]; HTC-116, 6.25 ug/ml): 31%
- viability at 48 h, 6.25 µg/ml ([3]; HTC-116, 6.25 ug/ml, read-out: % Cell viability): 69%
- cytotoxicity at 48 h, 12.5 µg/ml ([3]; HTC-116, 12.5 ug/ml): 43.1%
- viability at 48 h, 12.5 µg/ml ([3]; HTC-116, 12.5 ug/ml, read-out: % Cell viability): 56.9%
- cytotoxicity at 48 h, 25 µg/ml ([3]; HTC-116, 25 ug/ml): 53.8%
- viability at 48 h, 25 µg/ml ([3]; HTC-116, 25 ug/ml, read-out: % Cell viability): 46.2%
- cytotoxicity at 48 h, 50 µg/ml ([3]; HTC-116, 50 ug/ml): 70%
- viability at 48 h, 50 µg/ml ([3]; HTC-116, 50 ug/ml, read-out: % Cell viability): 30%
- cytotoxicity at 48 h, 100 µg/ml ([3]; HTC-116, 100 ug/ml): 91.2%
- viability at 48 h, 100 µg/ml ([3]; HTC-116, 100 ug/ml, read-out: % Cell viability): 8.77%
- IC50 [4]: 25.7 µg/mL (≈ 47.3 µM)
- cytotoxicity at 48 h, 6.25 µg/ml ([5]; Caco-2, 6.25 ug/ml): 28.1%
- viability at 48 h, 6.25 µg/ml ([5]; Caco-2, 6.25 ug/ml, read-out: % Cell viability): 71.9%
- cytotoxicity at 48 h, 12.5 µg/ml ([5]; Caco-2, 12.5 ug/ml): 41.6%
- viability at 48 h, 12.5 µg/ml ([5]; Caco-2, 12.5 ug/ml, read-out: % Cell viability): 58.4%
- cytotoxicity at 48 h, 25 µg/ml ([5]; Caco-2, 25 ug/ml): 53.9%
- viability at 48 h, 25 µg/ml ([5]; Caco-2, 25 ug/ml, read-out: % Cell viability): 46.1%
- cytotoxicity at 48 h, 50 µg/ml ([5]; Caco-2, 50 ug/ml): 71.2%
- viability at 48 h, 50 µg/ml ([5]; Caco-2, 50 ug/ml, read-out: % Cell viability): 28.8%
- cytotoxicity at 48 h, 100 µg/ml ([5]; Caco-2, 100 ug/ml): 92.1%
- viability at 48 h, 100 µg/ml ([5]; Caco-2, 100 ug/ml, read-out: % Cell viability): 7.87%
- IC50 [6]: 27.1 µg/mL (≈ 49.9 µM)

Reference: publication PMC12446468, “Anti-inflammatory and cytotoxic assessment of flavonoids isolated from Viola odorata flowers with computer-guided docking study” (Scientific Reports, 2025)
